The target of one assay is Brd4 ET (Homo sapiens, UniProt O60885). To be noted: peptide construct, read-out: binding affinity; cited from earlier work.
For another assay, the system named is Molm-13 cells. To be noted: seven days post transduction; cited from earlier work.
The subject of assay [1] is C4-2B MDVR cells. Kind of assay: Growth inhibition in combination with enzalutamide, coefficient of drug interaction. In kind it is cell-based. To be noted: for CDI: with enzalutamide; for CDI / CDI with Enzalutamide: C4-2B MDVR cells; for CDI with Enzalutamide: treated for 5 days; for 3 Day CDI / 5 Day CDI: with enzalutamide (MDV). The protocol:
C4-2B AbiR: abiraterone resistance; C4-2B ApaR: apalutamide resistance; C4-2B DaroR: darolutamide resistance; C4-2B MDVR: enzalutamide resistance.
Piperidine BET protein inhibitor 2 was also found to synergize with enzalutamide in inhibiting the growth of enzalutamide-resistant C4-2b MDVR cells, as shown in FIG. 6A and FIG. 6B.
Organoids generated from enzalutamide resistant LuCaP35CR PDX tumors were treated with either piperazine BET protein inhibitor 10 at concentrations as indicated (A) or in combination with enzalutamide 20 μM(C) for 7 days; representative organoids were imaged under the fluorescence microscope after stained by LIVE/DEAD Viability/Cytotoxicity Kit (Invitrogen MP03224). Organoid viability was measured using CellTiter Glo (Promega Catelog#G9681) for piperazine BET protein inhibitor 10 single treatment (B) and for combinational treatment with enzalutamide (D, E). […] Blue indicates synergy while red indicates antagonism between drugs. The coefficient of drug interaction (CDI) is calculated as follows: CDI=AB/(A×B). A is growth inhibition effect of treatment with the BET protein inhibitor. B is growth inhibition effect of enzalutamide treatment. AB is the growth inhibition effect of the combination treatment. […] The coefficient of drug interaction (CDI) of 20 μM enzalutamide with 0.5 μM BET protein inhibitor combination treatment were 0.97 and 0.91 respectively in LuCaP35CR organoids, evidencing a synergistic effect (CDI=0.4222, <1).
C4-2B MDVR […], and then total cell numbers were determined. * indicates significant difference from control and ** indicates significant difference between Enza drug treatment and the combination treatment; p<0.05.

Assay [2] deals with C4-2B MDVR cells. Kind of assay: C4-2B MDVR (enzalutamide resistant) cell growth, cell number. The assay is classed as cell-based. To be noted: for inhibition of cell growth (cell number): 5 μM. As to the method: (§1) Enzalutamide resistant C4-2B MDVR cells and darolutamide resistant C4-2B DaroR cells were treated with candidate compounds at 5 μM. BET (I-BET151; (R)-7-(3,5-dimethylisoxazol-4-yl)-8-methoxy-1-(1-(pyridin-2-yl)ethyl)-1,3-dihydro-2H-imidazo[4,5-c]quinolin-2-one; CAS RN 1300031-49-5) was used as the positive control at 5 μM. The cell number was determined. Only piperazine BET protein inhibitor 10 and the BET control inhibited both C4-2B MDVR and C4-2B DaroR cell growth at a concentration of 5 μM. Other compounds from the screen were not observed to effect cell growth under the test conditions.
C4-2B MDVR cells were treated with increasing doses of piperazine BET protein inhibitor 10 and compound 8 (8-(1-isopropyl-6-methyl-1H-pyrazolo[3,4-b]pyridine-5-carbonyl)-1,3-diazaspiro[4.5]decane-2,4-dione) as indicated. The cell number was determined after 3-day treatment.
(§2) C4-2B and C4-2B MDVR Cells were plated at 20,000 cells per well in 24-well plates and treated as indicated for 6 days. Total cell number was assessed by Coulter Counter. * indicates significant difference from control for each cell line, p<0.05.
C4-2B MDVR cells were plated at 20,000 cells per well in 24-well plates and treated for 5 days with the indicated compounds. The total cell number was determined and expressed as percentage of control. * indicates a significant difference from control, p<0.05.

The subject of a further assay is C4-2B cells. Put plainly: C4-2B cell growth, total cell number by Coulter Counter. To be noted: 1-40 μM, 6 days. In kind it is cell-based. As to the method:
as §2

Assay [3] has as its system C4-2B DaroR cells. Put plainly: C4-2B DaroR (darolutamide resistant) cell growth, cell number. The assay is classed as cell-based. To be noted: 5 μM. As to the method: as §1
Assay [4] relates to C4-2B DaroR cells. Put plainly: Growth inhibition in combination with darolutamide, coefficient of drug interaction. In kind it is cell-based. To be noted: with darolutamide (Daro).
The subject of the next assay is C4-2B AbiR cells. Put plainly: Growth inhibition in combination with abiraterone, coefficient of drug interaction. The assay is classed as cell-based. To be noted: with abiraterone (Abi).
The subject of a further assay is cMYC. Kind of assay: cMYC expression in C4-2B MDVR cells. In kind it is cell-based. To be noted: increasing doses, 2 days, Western blot. As to the method: (§3) C4-2B MDVR cells were treated with piperazine BET protein inhibitor 10 and the I-BET151 control at increasing doses for 2 days. The cell lysates were subjected to Western blot analysis for BRD4, AR-FL, and cMYC expression. As shown here, both piperazine BET protein inhibitor 10 and I-BET151 inhibited BRD4, AR-FL, and cMYC protein expression.

In assay [5] the test system is LuCaP49 prostate cancer PDX. Kind of assay: LuCaP49 prostate cancer PDX tumor growth in mice. The assay is classed as in vivo. To be noted: 60 mg/kg, i.p., daily, 5 days/week. The protocol: Mice bearing tumors from LuCaP49 prostate cancer PDX were treated with BETi-10 (60 mg/kg, i.p.) daily, 5 days/week. Tumor volume were measured and relative fold changes were calculated compared to the day 0 treatment.

Another assay relates to AR-FL. Put plainly: Western blot of AR-FL expression in C4-2B MDVR cells. The assay is classed as cell-based. To be noted: increasing doses, 2 days. As to the method: as §3
The subject of a further assay is C4-2B ApaR cells. Kind of assay: Growth inhibition in combination with apalutamide, coefficient of drug interaction. The assay is classed as cell-based. To be noted: with apalutamide (Apa).
Another assay concerns MYC signaling pathway. Put plainly: Analysis of total RNA isolated from treated cells. In kind it is cell-based. To be noted: data not shown.
A further assay has as its target T1, BRD4 (Homo sapiens, UniProt O60885).
T1 construct: endogenous in cells; host or cells: C4-2B MDVR
Kind of assay: Western blot of BRD4 expression in C4-2B MDVR cells. The assay is classed as cell-based. To be noted: increasing doses, 2 days. The protocol: as §3

Where “and” joins values, the source holds several entries; their conditions need not be identical. Identical values can stand only once.

The values below come from US20240189304A1, “BET PROTEIN INHIBITORS AND USE THEREOF” (The Regents of the University of California, priority 2021, published 2024).

As to “17 amino acid region TWRVQRSQNPLKIRKTR(389′-405′) (SEQ ID NO:1) of MLV IN, minimal binding region for Brd4 ET [EBM]”, at Brd4 ET, the Kd was around 160 nM. Also, the “reduction in cellular proliferation compared to vector control cells” value in the assay on Molm-13 cells is reported as around 10 fold.
For `CC(C)n1nccc1NC(=O)C1CCCN(C(=O)c2ccc(Cl)c(Cl)c2)C1` (stereo not drawn) [Compound 2, 1-(3,4-dichlorobenzoyl)-N-(1-isopropyl-1H-pyrazol-5-yl)piperidine-3-carboxamide], the CDI with C4-2B MDVR cells [1] (3 Day, 10 μM 2) came out at 0.751; with C4-2B MDVR cells [1] (3 Day, 20 μM 2), 0.8105; in the assay with C4-2B MDVR cells [1] (5 Day, 10 μM 2), 0.792; with C4-2B MDVR cells [1] (5 Day, 20 μM 2) it was 0.702. Moreover, the “inhibition of cell growth (total cell number)” value was “inhibit the growth of C4-2B and C4-2B MDVR cells in a dose-dependent manner” with C4-2B MDVR cells [2] (1-40 μM, 6 days); “inhibit the growth of C4-2B and C4-2B MDVR cells in a dose-dependent manner” with C4-2B cells.
Take `Cc1nc2c(cnn2C(C)C)cc1C(=O)C1CCC2(CC1)NC(=O)NC2=O` (stereo not drawn) [Compound 8, 8-(1-isopropyl-6-methyl-1H-pyrazolo[3,4-b]pyridine-5-carbonyl)-1,3-diazaspiro[4.5]decane-2,4-dione]: the “growth inhibition at increasing doses” value with C4-2B MDVR cells [2] (3-day treatment) is “no growth inhibition was observed”.
In the case of `O=C(Nc1cccc(C(=O)N2CCN(CCOc3ccc(Cl)cc3)CC2)c1)C1CCCO1` (stereo not drawn) [Compound 10, N-(3-(4-(2-(4-chlorophenoxy)ethyl)piperazine-1-carbonyl)phenyl)tetrahydrofuran-2-carboxamide], the “CDI with Enzalutamide” value with C4-2B MDVR cells [1] amounted to 0.76. The “3 Day CDI” value is reported as 0.6791 in the assay with C4-2B MDVR cells [1] (1 μM (10)); 0.5693 with C4-2B MDVR cells [1] (2.5 μM (10)); 0.6607 in the assay with C4-2B DaroR cells [4] (1 μM (10)); 0.6111 in the assay on C4-2B DaroR cells [4] (2.5 μM (10)); 1.019 in the assay on C4-2B AbiR cells (1 μM (10)); 0.914 with C4-2B AbiR cells (2.5 μM (10)). The “3 Day CDI” value in the assay with C4-2B ApaR cells (1 μM (10)) worked out at 0.7981; with C4-2B ApaR cells (2.5 μM (10)), 0.7358. Besides, the “5 Day CDI” value in the assay on C4-2B MDVR cells [1] (1 μM (10)) was 0.3464; in the assay with C4-2B MDVR cells [1] (2.5 μM (10)) it was 0.26 and 0.2628; with C4-2B DaroR cells [4] (1 μM (10)), 0.4574; in the assay on C4-2B DaroR cells [4] (2.5 μM (10)), 0.38 and 0.3762; in the assay with C4-2B AbiR cells (1 μM (10)) it was 1.362; with C4-2B AbiR cells (2.5 μM (10)), 0.98 and 0.9835. Besides, the “5 Day CDI” value is 0.639 in the assay on C4-2B ApaR cells (1 μM (10)); 0.54 and 0.5381 in the assay with C4-2B ApaR cells (2.5 μM (10)). Moreover, the “inhibition of cell growth (cell number)” value in the assay with C4-2B DaroR cells [3] and in the assay with C4-2B MDVR cells [2] was “inhibited” in each case. Moreover, in the assay on cMYC, the cMYC protein expression entry is reported as “inhibited”. In assay [5], the “tumor growth (tumor volume, relative fold change to day 0)” value was “inhibit the growth”. For the same compound, the AR-FL protein expression entry in the assay on AR-FL is given as “inhibited”. In addition, the “growth inhibition at increasing doses” value in the assay on C4-2B MDVR cells [2] (3-day treatment) is “inhibited growth of C4-2B MDVR cells in a dose-dependent manner”. The compound further returned a 50% inhibitory concentration (IC50) with C4-2B MDVR cells [2] (72 h, 3-day treatment) of 1700 to 2100 nM. Moreover, the “inhibition of the MYC signaling pathway” value in the assay with MYC signaling pathway was “inhibit the MYC signaling pathway”. The BRD4 protein expression entry at BRD4 is “inhibited”.
Regarding `O=C(Nc1cccc(C(=O)N2CCN(CCOc3ccc(Cl)cc3)CC2)c1)c1ccco1` [Compound 11, N-(3-(4-(2-(4-chlorophenoxy)ethyl)piperazine-1-carbonyl)phenyl)furan-2-carboxamide], in the assay on C4-2B MDVR cells [1], the “CDI with Enzalutamide” value is recorded as 0.90. Also, the “inhibition of the MYC signaling pathway” value with MYC signaling pathway is listed as “inhibit the MYC signaling pathway”.
Consider `N[C@@H](Cc1c[nH]c2ccccc12)C(=O)Nc1cccc(C(=O)N2CCN(CCOc3ccc(Cl)cc3)CC2)c1` [Compound 12, (S)-2-Amino-N-(3-(4-(2-(4-chlorophenoxy)ethyl)piperazine-1-carbonyl)phenyl)-3-(1H-indol-3-yl)propenamide], for which the “CDI with Enzalutamide” value in the assay on C4-2B MDVR cells [1] was found to be 0.90.
As for `CC(C)(C)OC(=O)N[C@@H](Cc1c[nH]c2ccccc12)C(=O)Nc1cccc(C(=O)N2CCN(CCOc3ccc(Cl)cc3)CC2)c1` [Compound 13], the “CDI with Enzalutamide” value in the assay on C4-2B MDVR cells [1] is given as 0.81.
For the compound `N[C@@H](Cc1c[nH]cn1)C(=O)Nc1cccc(C(=O)N2CCN(CCOc3ccc(Cl)cc3)CC2)c1` [Compound 14, (S)-2-Amino-N-(3-(4-(2-(4-chlorophenoxy)ethyl)piperazine-1-carbonyl)phenyl)-3-(1H-imidazol-4-yl)propenamide], the “CDI with Enzalutamide” value in the assay with C4-2B MDVR cells [1] amounted to 0.82.
With `COc1cc2c(cc1-c1c(C)noc1C)ncc1[nH]c(=O)n([C@H](C)c3ccccn3)c12` [I-BET151, (R)-7-(3,5-dimethylisoxazol-4-yl)-8-methoxy-1-(1-(pyridin-2-yl)ethyl)-1,3-dihydro-2H-imidazo[4,5-c]quinolin-2-one, reference compound], the “inhibition of cell growth (cell number)” value in the assay with C4-2B DaroR cells [3] and in the assay with C4-2B MDVR cells [2] was “inhibited” throughout. Moreover, the cMYC protein expression result in the assay with cMYC is recorded as “inhibited”. Further, in the assay with AR-FL, the AR-FL protein expression entry is recorded as “inhibited”. Also, on BRD4, the BRD4 protein expression entry is recorded as “inhibited”.
